Tested on: 966289-007-R4-J1-PDC complex spheroid viability
Assay: Anticancer human tumor 966289-007-R4-J1-PDC patient-derived pancreatic adenocarcinoma cell line growth inhibition [GQUAD]
Details: for IC50: curve of first compound; for viability, T/C: stronger effect = lower value
Method in brief: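 Tumor cells were grown as complex spheroids with HUVEC endothelial cells and mesenchymal stem cells as stroma. G-quadruplex stabilizers were combined with targeted agents over half-log dilutions from near the clinical Cmax, or from 10 microM.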

[1] = second compound 0.0316 µM, first compound 0.0316 µM
[2] = second compound 0.0316 µM, first compound 0.1 µM
[3] = second compound 0.0316 µM, first compound 0.316 µM
[4] = second compound 0.0316 µM, first compound 1 µM
[5] = second compound 0.0316 µM, first compound 3.16 µM
[6] = second compound 0.0316 µM, first compound 10 µM
[7] = second compound 0.1 µM, first compound 0.0316 µM
[8] = second compound 0.1 µM, first compound 0.1 µM
[9] = second compound 0.1 µM, first compound 0.316 µM
[10] = second compound 0.1 µM, first compound 1 µM
[11] = second compound 0.1 µM, first compound 3.16 µM
[12] = second compound 0.1 µM, first compound 10 µM
[13] = second compound 0.316 µM, first compound 0.0316 µM
[14] = second compound 0.316 µM, first compound 0.1 µM
[15] = second compound 0.316 µM, first compound 0.316 µM
[16] = second compound 0.316 µM, first compound 1 µM
[17] = second compound 0.316 µM, first compound 3.16 µM
[18] = second compound 0.316 µM, first compound 10 µM
[19] = second compound 1 µM, first compound 0.0316 µM
[20] = second compound 1 µM, first compound 0.1 µM
[21] = second compound 1 µM, first compound 0.316 µM
[22] = second compound 1 µM, first compound 1 µM
[23] = second compound 1 µM, first compound 3.16 µM
[24] = second compound 1 µM, first compound 10 µM
[25] = second compound 3.16 µM, first compound 0.0316 µM
[26] = second compound 3.16 µM, first compound 0.1 µM
[27] = second compound 3.16 µM, first compound 0.316 µM
[28] = second compound 3.16 µM, first compound 1 µM
[29] = second compound 3.16 µM, first compound 3.16 µM
[30] = second compound 3.16 µM, first compound 10 µM
[31] = second compound 10 µM, first compound 0.0316 µM
[32] = second compound 10 µM, first compound 0.1 µM
[33] = second compound 10 µM, first compound 0.316 µM
[34] = second compound 10 µM, first compound 1 µM
[35] = second compound 10 µM, first compound 3.16 µM
[36] = second compound 10 µM, first compound 10 µM
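Note: spheroids exposed to the agents for seven days before readout.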
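Throughout, for viability, T/C: percent viability relative to DMSO vehicle control wells taken as 100%.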

Compound: C=CCn1c(=O)c2cnc(Nc3ccc(N4CCN(C)CC4)cc3)nc2n1-c1cccc(C(C)(C)O)n1 + Cc1cnc(CNC(=O)c2c(=O)c3ccc(N4CCCN(C)CC4)nc3n3c2sc2ccccc23)cn1
- IC50 (second compound 0.0316 µM): 236 nM
- IC50 (second compound 0.1 µM): < 31.6 nM
- IC50 (second compound 0.316 µM): < 31.6 nM
- IC50 (second compound 1 µM): < 31.6 nM
- IC50 (second compound 3.16 µM): < 31.6 nM
- IC50 (second compound 10 µM): < 31.6 nM
- viability, T/C [1]: 105%
- viability, T/C [2]: 90%
- viability, T/C [3]: 36.5%
- viability, T/C [4]: 4.74%
- viability, T/C [5]: 1.95%
- viability, T/C [6]: 1.13%
- viability, T/C [7]: 29.4%
- viability, T/C [8]: 15.7%
- viability, T/C [9]: 8.35%
- viability, T/C [10]: 3.91%
- viability, T/C [11]: 2.06%
- viability, T/C [12]: 1.35%
- viability, T/C [13]: 6.91%
- viability, T/C [14]: 6.09%
- viability, T/C [15]: 5.08%
- viability, T/C [16]: 4.04%
- viability, T/C [17]: 2.11%
- viability, T/C [18]: 1.81%
- viability, T/C [19]: 4.63%
- viability, T/C [20]: 4.25%
- viability, T/C [21]: 3.87%
- viability, T/C [22]: 2.82%
- viability, T/C [23]: 1.24%
- viability, T/C [24]: 1.48%
- viability, T/C [25]: 2.9%
- viability, T/C [26]: 2.75%
- viability, T/C [27]: 2.77%
- viability, T/C [28]: 1.24%
- viability, T/C [29]: 0.09%
- viability, T/C [30]: 0.38%
- viability, T/C [31]: 0.06%
- viability, T/C [32]: 0.11%
- viability, T/C [33]: 0.12%
- viability, T/C [34]: 0.28%
- viability, T/C [35]: 0.46%
- viability, T/C [36]: 0.13%

Compound: CC(=O)O[C@H]1C(=O)[C@@]2(C)[C@H]([C@H](OC(=O)c3ccccc3)[C@]3(O)C[C@H](OC(=O)[C@H](O)[C@@H](NC(=O)c4ccccc4)c4ccccc4)C(C)=C1C3(C)C)[C@]1(OC(C)=O)CO[C@@H]1C[C@@H]2O + Cc1cnc(CNC(=O)c2c(=O)c3ccc(N4CCCN(C)CC4)nc3n3c2sc2ccccc23)cn1
- IC50 (second compound 0.0316 µM): < 31.6 nM
- IC50 (second compound 0.1 µM): < 31.6 nM
- IC50 (second compound 0.316 µM): < 31.6 nM
- IC50 (second compound 1 µM): < 31.6 nM
- IC50 (second compound 3.16 µM): < 31.6 nM
- IC50 (second compound 10 µM): < 31.6 nM
- viability, T/C [1]: 3.55%
- viability, T/C [2]: 2.41%
- viability, T/C [3]: 2.38%
- viability, T/C [4]: 2.61%
- viability, T/C [5]: 4.35%
- viability, T/C [6]: 6.47%
- viability, T/C [7]: 3.6%
- viability, T/C [8]: 2.87%
- viability, T/C [9]: 3.34%
- viability, T/C [10]: 3.44%
- viability, T/C [11]: 4.23%
- viability, T/C [12]: 5.96%
- viability, T/C [13]: 6.14%
- viability, T/C [14]: 5.32%
- viability, T/C [15]: 4.53%
- viability, T/C [16]: 4.82%
- viability, T/C [17]: 6.03%
- viability, T/C [18]: 6.11%
- viability, T/C [19]: 4.85%
- viability, T/C [20]: 3.94%
- viability, T/C [21]: 4.08%
- viability, T/C [22]: 3.75%
- viability, T/C [23]: 5.24%
- viability, T/C [24]: 5.33%
- viability, T/C [25]: 3.56%
- viability, T/C [26]: 2.87%
- viability, T/C [27]: 3.36%
- viability, T/C [28]: 2.75%
- viability, T/C [29]: 3.86%
- viability, T/C [30]: 3.56%
- viability, T/C [31]: 0.08%
- viability, T/C [32]: 0.11%
- viability, T/C [33]: 0.1%
- viability, T/C [34]: 0.09%
- viability, T/C [35]: 0.1%
- viability, T/C [36]: 0.11%

Compound: CC(C)(O)C1CCC(Nc2ccc3ncc(-c4cccc(C(F)(F)F)c4)n3n2)CC1 (stereo unspecified) + Cc1cnc(CNC(=O)c2c(=O)c3ccc(N4CCCN(C)CC4)nc3n3c2sc2ccccc23)cn1
- IC50 (second compound 0.0316 µM): 2060 nM
- IC50 (second compound 0.1 µM): < 31.6 nM
- IC50 (second compound 0.316 µM): < 31.6 nM
- IC50 (second compound 1 µM): < 31.6 nM
- IC50 (second compound 3.16 µM): < 31.6 nM
- IC50 (second compound 10 µM): < 31.6 nM
- viability, T/C [1]: 103%
- viability, T/C [2]: 105%
- viability, T/C [3]: 108%
- viability, T/C [4]: 97.3%
- viability, T/C [5]: 22%
- viability, T/C [6]: 16.9%
- viability, T/C [7]: 32%
- viability, T/C [8]: 29.9%
- viability, T/C [9]: 35.4%
- viability, T/C [10]: 26%
- viability, T/C [11]: 5.94%
- viability, T/C [12]: 7.03%
- viability, T/C [13]: 8.94%
- viability, T/C [14]: 10.5%
- viability, T/C [15]: 9.21%
- viability, T/C [16]: 9.55%
- viability, T/C [17]: 3.64%
- viability, T/C [18]: 2.73%
- viability, T/C [19]: 6.09%
- viability, T/C [20]: 5.79%
- viability, T/C [21]: 5.01%
- viability, T/C [22]: 4.88%
- viability, T/C [23]: 0.44%
- viability, T/C [24]: 0.4%
- viability, T/C [25]: 3.22%
- viability, T/C [26]: 4.22%
- viability, T/C [27]: 3.14%
- viability, T/C [28]: 0.95%
- viability, T/C [29]: 0.08%
- viability, T/C [30]: 0.08%
- viability, T/C [31]: 0.04%
- viability, T/C [32]: 0.09%
- viability, T/C [33]: 0.14%
- viability, T/C [34]: 0.13%
- viability, T/C [35]: 0.14%
- viability, T/C [36]: 0.14%

— PubChem BioAssay AID2060488 (Molecular Pharmacology Branch, DTP, NCI, 2025)
